# Assays:
# [1] = tested on: pigs sensitized to haloperidol; test: dystonia in pigs sensitized to haloperidol; type: in vivo
# [2] = biological target: dopamine (DA) D1 receptors (Homo sapiens, UniProt P21728); settings: as described in PCT/DK04/000546; cited from earlier work
# DA D2 receptors = DA D2 receptors (Homo sapiens, UniProt P14416); settings: as described in PCT/DK04/000546; cited from earlier work
# alfal adrenoceptors = settings: as described in PCT/DK04/000546; cited from earlier work
# dopamine D1 receptors = dopamine D1 receptors (Homo sapiens, UniProt P21728); settings: as described in PCT/DK04/000546; cited from earlier work
# Sequence of dopamine D1 receptors (P21728 whole entry): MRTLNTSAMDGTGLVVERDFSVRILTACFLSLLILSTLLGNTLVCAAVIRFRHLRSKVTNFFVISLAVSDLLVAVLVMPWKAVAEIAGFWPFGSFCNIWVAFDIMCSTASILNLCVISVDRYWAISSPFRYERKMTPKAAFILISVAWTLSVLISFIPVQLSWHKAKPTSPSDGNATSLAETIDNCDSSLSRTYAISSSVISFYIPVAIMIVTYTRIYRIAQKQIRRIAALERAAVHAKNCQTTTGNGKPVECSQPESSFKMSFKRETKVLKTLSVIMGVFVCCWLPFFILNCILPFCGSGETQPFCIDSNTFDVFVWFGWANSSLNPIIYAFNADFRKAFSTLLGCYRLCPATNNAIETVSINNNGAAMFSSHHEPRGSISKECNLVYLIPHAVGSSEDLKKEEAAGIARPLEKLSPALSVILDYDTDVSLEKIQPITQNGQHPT
# dopamine D2 receptors = dopamine D2 receptors (Homo sapiens, UniProt P14416); settings: as described in PCT/DK04/000546; cited from earlier work
# Sequence of dopamine D2 receptors (P14416 whole entry): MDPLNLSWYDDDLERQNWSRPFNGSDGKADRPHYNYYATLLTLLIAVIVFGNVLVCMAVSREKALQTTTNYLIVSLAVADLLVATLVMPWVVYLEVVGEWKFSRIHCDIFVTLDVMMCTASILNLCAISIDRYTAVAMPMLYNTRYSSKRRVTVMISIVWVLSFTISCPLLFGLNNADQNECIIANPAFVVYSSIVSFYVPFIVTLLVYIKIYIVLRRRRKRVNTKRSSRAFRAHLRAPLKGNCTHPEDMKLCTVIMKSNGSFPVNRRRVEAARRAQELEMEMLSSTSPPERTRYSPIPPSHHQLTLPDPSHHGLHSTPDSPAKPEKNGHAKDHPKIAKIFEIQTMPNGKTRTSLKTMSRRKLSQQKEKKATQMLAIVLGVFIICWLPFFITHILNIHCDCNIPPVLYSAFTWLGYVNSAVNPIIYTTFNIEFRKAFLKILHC
# [3] = biological target: serotonin 5-HT2a receptors (Homo sapiens, UniProt P28223); settings: as described in PCT/DK04/000546; cited from earlier work
# Sequence of serotonin 5-HT2a receptors (P28223 whole entry): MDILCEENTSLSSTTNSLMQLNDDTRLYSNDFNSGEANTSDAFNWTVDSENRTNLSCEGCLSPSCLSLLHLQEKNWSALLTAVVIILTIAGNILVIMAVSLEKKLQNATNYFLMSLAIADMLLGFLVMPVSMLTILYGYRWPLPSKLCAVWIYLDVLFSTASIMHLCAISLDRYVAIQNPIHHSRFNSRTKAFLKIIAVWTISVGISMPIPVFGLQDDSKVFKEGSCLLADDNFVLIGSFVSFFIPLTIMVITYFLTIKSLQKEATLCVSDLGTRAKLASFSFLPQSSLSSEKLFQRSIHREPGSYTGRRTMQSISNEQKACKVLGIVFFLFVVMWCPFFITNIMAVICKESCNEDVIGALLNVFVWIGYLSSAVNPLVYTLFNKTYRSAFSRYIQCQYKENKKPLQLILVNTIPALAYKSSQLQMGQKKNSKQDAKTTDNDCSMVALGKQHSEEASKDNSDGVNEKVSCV
# CYP2D6 = CYP2D6 (Homo sapiens, UniProt P10635); settings: as described in PCT/DK04/000546; cited from earlier work
# Sequence of CYP2D6 (P10635 whole entry): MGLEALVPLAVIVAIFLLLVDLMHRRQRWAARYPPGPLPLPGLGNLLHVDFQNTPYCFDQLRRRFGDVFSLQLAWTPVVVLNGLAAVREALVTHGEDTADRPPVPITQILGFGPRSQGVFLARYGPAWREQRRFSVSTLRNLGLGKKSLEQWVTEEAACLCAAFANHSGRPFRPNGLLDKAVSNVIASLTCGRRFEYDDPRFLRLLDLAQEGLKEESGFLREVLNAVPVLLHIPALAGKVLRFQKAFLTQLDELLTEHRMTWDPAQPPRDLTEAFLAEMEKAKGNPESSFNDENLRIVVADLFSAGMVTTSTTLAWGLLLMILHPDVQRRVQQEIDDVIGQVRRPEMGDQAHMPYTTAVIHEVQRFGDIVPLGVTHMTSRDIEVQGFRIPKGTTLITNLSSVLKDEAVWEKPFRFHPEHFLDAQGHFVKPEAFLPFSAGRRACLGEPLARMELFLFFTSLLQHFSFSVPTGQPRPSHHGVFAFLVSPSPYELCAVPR
# [4] = rabbit model; as described in PCT/DK04/000546; cited from earlier work
# solubility of the salts = type: physicochemical
# Sequence of DA D2 receptors (P14416 whole entry): as the sequence (P14416 whole entry) above
# Sequence of dopamine (DA) D1 receptors (P21728 whole entry): as the sequence (P21728 whole entry) above
structure (smiles),measurement,setting,value
"CC1(C)CN([C@@H]2C[C@@H](c3ccccc3)c3ccc(Cl)cc32)CCN1 [Compound I, trans-1-((1R,3S)-6-chloro-3-phenylindan-1-yl)-3,3-dimethylpiperazine]",induction of dystonia (EPS liability),[1],did not induce dystonia
same,affinity for dopamine (DA) D1 receptors,[2],high affinity
same,affinity for DA D2 receptors,DA D2 receptors,high affinity
same,affinity for alfal adrenoceptors,alfal adrenoceptors,high affinity
same,functional activity at dopamine D1 receptors,dopamine D1 receptors,antagonist
same,functional activity at dopamine D2 receptors,dopamine D2 receptors,antagonist
same,functional activity at serotonin 5-HT2a receptors,[3],antagonist
same,inhibition of CYP2D6,CYP2D6,relatively weak inhibitor
same,effect on the QT interval,[4],relatively low effect
"CC1(C)CN([C@@H]2C[C@@H](c3ccccc3)c3ccc(Cl)cc32)CCN1.CC1(C)CN([C@@H]2C[C@@H](c3ccccc3)c3ccc(Cl)cc32)CCN1.O=C(O)C[C@H](O)C(=O)O (relative stereo) [malate salt, trans-1-((1R,3S)-6-chloro-3-phenylindan-1-yl)-3,3-dimethylpiperazinium L-malate]",solubility,solubility of the salts,800 µg/mL
